Measurements from US8541598B2, “Biodegradable solvents for the chemical industry” (Dublin City University, priority 2007, dated 2013).
Entries after “also recorded” stand apart in the source; their conditions may differ. Like-named read-outs stand apart in the source and are kept apart here.

Tests used:
[1] = system: Pseudomonas aeruginosa, Escherichia coli, Klebsiella sp., Salmonella sp., Staphylococcus aureus, Enterococcus sp., Bacillus subtilis; assay: Antimicrobial activity / minimum inhibitory concentrations on seven strains of bacteria; type: cell-based; settings: for toxicity / antibacterial activity in words: seven strains of bacteria; for MIC values: seven strains, not split, range tested 0-20000 μg/ml
Procedure: (§1) Seven strains of bacteria were used in the assessment of the antimicrobial activity of the ILs claimed: 4 gram negative and three gram positive as shown below.
(§2) A wide concentration range was tested (0-20000 μg/ml). The concentrations screened for antibacterial activity are generally from 2 μg/ml to 1000 μg/ml (Table 6). […] The concentration range screened for the ILs containing ethers was up to 20000 μg/ml. At these high concentrations a lack of antibacterial activity is a significant result.

[2] = as above; type: cell-based; settings: read-out: MIC values
Procedure: as §1, §2

[3] = seven strains, not split, range tested 0-20000 μg/ml

Molecule	toxicity / antibacterial activity in words [1]	MIC [2] [mg/mL]	MIC [2, 3] [mg/mL]	MIC values [1]
CCC(C)OCCOC(=O)Cn1cc[n+](C)c1C.[Br-] (stereo not drawn) [KG16, 2,3-dimethyl-1-(2-[2-butoxy]ethoxycarbonylmethyl)imidazolium bromide]	non-toxic	> 20		
CCCCCOC(=O)C[n+]1ccn(C)c1 [KG35, 3-methyl-1-(pentoxycarbonylmethyl)imidazolium octylsulfate]	non-toxic		> 20	
COCCOCCOC(=O)Cn1cc[n+](C)c1.[Br-] [KG12, 3-methyl-1-(2-[2-methoxyethoxy]ethoxycarbonylmethyl)imidazolium bromide]	non-toxic		> 20	
COCCOCCOC(=O)C[n+]1ccn(C)c1C [KG45, 2,3-dimethyl-1-(2-[2-methoxyethoxy]ethoxycarbonylmethyl)imidazolium octylsulfate]	non-toxic	10		
CCOCCOC(=O)C[n+]1ccn(C)c1 [KG37, 3-methyl-1-(2-[2-ethoxy]ethoxycarbonylmethyl)imidazolium octylsulfate]	non-toxic		> 20	
CCC(C)OCCOC(=O)Cn1cc[n+](C)c1.[Br-] (stereo not drawn) [KG10, 3-methyl-1-(2-[2-butoxy]ethoxycarbonylmethyl)imidazolium bromide]	non-toxic		> 20	
COCCOCCOC(=O)Cn1cc[n+](C)c1C.[Br-] [KG18, 2,3-dimethyl-1-(2-[2-methoxyethoxy]ethoxycarbonylmethyl)imidazolium bromide]	non-toxic		> 20	
CCOCCOCCOC(=O)C[n+]1ccn(C)c1 [KG41, 3-methyl-1-(2-[2-ethoxyethoxy]ethoxycarbonylmethyl)imidazolium octylsulfate]	non-toxic	10		
CCOCCOCCOC(=O)C[n+]1ccn(C)c1.O=S(=O)([N-]S(=O)(=O)C(F)(F)F)C(F)(F)F [KG54, 3-methyl-1-(2-[2-ethoxyethoxy]ethoxycarbonylmethyl)imidazolium NTf2]	non-toxic			>20000 KG54 μg/ml
CCCCOCCOC(=O)Cn1cc[n+](C)c1C.N#C[N-]C#N [KG84, 2,3-dimethyl-1-(2-[2-butoxy]ethoxycarbonylmethyl)imidazolium N(CN)2]	non-toxic			>20000 KG84 μg/ml
CCOCCOC(=O)C[n+]1ccn(C)c1.O=S(=O)([N-]S(=O)(=O)C(F)(F)F)C(F)(F)F [KG50, 3-methyl-1-(2-[2-ethoxy]ethoxycarbonylmethyl)imidazolium NTf2]	non-toxic			>20000 KG50 μg/ml
3-methyl-1-(2-[2-methoxy]ethoxycarbonylmethyl)imidazolium PF6 [KG23]	non-toxic			>20000 KG23 μg/ml
CCCCOCCOC(=O)Cn1cc[n+](C)c1.O=S(=O)([N-]S(=O)(=O)C(F)(F)F)C(F)(F)F [KG52, 3-methyl-1-(2-[2-butoxy]ethoxycarbonylmethyl)imidazolium NTf2]	non-toxic			>20000 KG52 μg/ml
3-methyl-1-(2-[2-butoxy]ethoxycarbonylmethyl)imidazolium BF4 [KG65]	non-toxic			>20000 KG65 μg/ml
C[n+]1ccn(CC(=O)N2CCCC2)c1.[Br-] [KG420, 3-methyl-1-(pyrrolidinylcarbonylmethyl)imidazolium bromide, reference compound]				>20000 KG420 μg/ml
Cn1cc[n+](CC(=O)N2CCCC2)c1 [KG403, 3-methyl-1-(pyrrolidinylcarbonylmethyl)imidazolium octylsulfate, reference compound]			> 20	
CCCOCCOC(=O)Cn1cc[n+](C)c1.O=S(=O)([N-]S(=O)(=O)C(F)(F)F)C(F)(F)F [KG51, 3-methyl-1-(2-[2-propoxy]ethoxycarbonylmethyl)imidazolium NTf2]	non-toxic			10000 KG51 μg/ml
COCCOC(=O)Cn1cc[n+](C)c1.O=S(=O)([N-]S(=O)(=O)C(F)(F)F)C(F)(F)F [KG49, 3-methyl-1-(2-[2-methoxy]ethoxycarbonylmethyl)imidazolium NTf2]	non-toxic			10000 KG49 μg/ml
CCOCCOC(=O)C[n+]1ccn(C)c1.N#C[N-]C#N [KG76, 3-methyl-1-(2-[2-ethoxy]ethoxycarbonylmethyl)imidazolium N(CN)2]	non-toxic			>20000 KG76 μg/ml
2,3-dimethyl-1-(2-[2-methoxyethoxy]ethoxycarbonylmethyl)imidazolium PF6 [KG33]	non-toxic			>20000 KG33 μg/ml
3-methyl-1-(2-[2-ethoxy]ethoxycarbonylmethyl)imidazolium PF6 [KG24]	non-toxic			>20000 KG24 μg/ml

Molecule	toxicity / antibacterial activity in words [1]	MIC [2] [mg/mL]	MIC [2, 3] [mg/mL]	MIC values [1]
CCCCOC(=O)Cn1cc[n+](C)c1.N#C[N-]C#N [KG73, 3-Methyl-1-(butoxycarbonylmethyl) imidazolium N(CN)2^−]				5000 KG73 μg/ml
CCOCCOCCOC(=O)Cn1cc[n+](C)c1.N#C[N-]C#N [KG80, 3-methyl-1-(2-[2-ethoxyethoxy]ethoxycarbonylmethyl)imidazolium N(CN)2]	non-toxic			>20000 KG80 μg/ml
2,3-dimethyl-1-(2-[2-methoxyethoxy]ethoxycarbonylmethyl)imidazolium BF4 [KG72]	non-toxic			>20000 KG72 μg/ml
COCCOCCOC(=O)Cn1cc[n+](C)c1.O=S(=O)([N-]S(=O)(=O)C(F)(F)F)C(F)(F)F [KG53, 3-methyl-1-(2-[2-methoxyethoxy]ethoxycarbonylmethyl)imidazolium NTf2]	non-toxic			10000 KG53 μg/ml
CCCCOCCOC(=O)Cn1cc[n+](C)c1.N#C[N-]C#N [KG78, 3-methyl-1-(2-[2-butoxy]ethoxycarbonylmethyl)imidazolium N(CN)2]	non-toxic			>20000 KG78 μg/ml
3-methyl-1-(2-[2-propoxyethoxy]ethoxycarbonylmethyl)imidazolium PF6 [KG29]	non-toxic			>20000 KG29 μg/ml
COCCOCCOC(=O)Cn1cc[n+](C)c1.N#C[N-]C#N [KG79, 3-methyl-1-(2-[2-methoxyethoxy]ethoxycarbonylmethyl)imidazolium N(CN)2]	non-toxic			>20000 KG79 μg/ml
CCCOCCOCCOC(=O)C[n+]1ccn(C)c1.O=S(=O)([N-]S(=O)(=O)C(F)(F)F)C(F)(F)F [KG55, 3-methyl-1-(2-[2-propoxyethoxy]ethoxycarbonylmethyl)imidazolium NTf2]	non-toxic			>20000 KG55 μg/ml
COC(C)NC(=O)C[n+]1ccn(C)c1.[Br-] (stereo not drawn) [KG422, (3-methyl-1-[1-methoxyethyl]carbamylmethyl)imidazolium bromide]	low toxicity; also recorded: non-toxic			>20000 KG422 μg/ml
Cc1n(C)cc[n+]1CC(=O)N1CCCC1 [KG404, 2,3-dimethyl-1-(pyrrolidinylcarbonylmethyl)imidazolium octylsulfate, reference compound]			> 20	
3-methyl-1-(2-[2-methoxyethoxy]ethoxycarbonylmethyl)imidazolium BF4 [KG66]	non-toxic			>20000 KG66 μg/ml
CCCCOC(=O)Cn1cc[n+](C)c1.[Br-] [KG19, 3-Methyl-1-(butoxycarbonylmethyl) imidazolium bromide]			> 20	
3-methyl-1-(2-[2-butoxyethoxy]ethoxycarbonylmethyl)imidazolium PF6 [KG30]	non-toxic			>20000 KG30 μg/ml
3-methyl-1-(2-[2-methoxy]ethoxycarbonylmethyl)imidazolium BF4 [KG62]	non-toxic			>20000 KG62 μg/ml
3-methyl-1-(2-[2-ethoxyethoxy]ethoxycarbonylmethyl)imidazolium PF6 [KG28]	non-toxic			>20000 KG28 μg/ml
CCCCCOC(=O)Cn1cc[n+](C)c1.[Br-] [KG17, 3-Methyl-1-(pentoxycarbonylmethyl) imidazolium bromide]			> 20	
3-methyl-1-(2-[2-propoxy]ethoxycarbonylmethyl)imidazolium PF6 [KG25]	non-toxic			>20000 KG25 μg/ml
3-methyl-1-(2-[2-methoxy]ethoxycarbonylmethyl)imidazolium bromide [KG7]	non-toxic			>20000 KG7 μg/ml
CCCCOCCOCCOC(=O)Cn1cc[n+](C)c1.N#C[N-]C#N [KG82, 3-methyl-1-(2-[2-butoxyethoxy]ethoxycarbonylmethyl)imidazolium N(CN)2]	non-toxic			>20000 KG82 μg/ml
3-methyl-1-(2-[2-propoxy]ethoxycarbonylmethyl)imidazolium BF4 [KG64]	non-toxic			>20000 KG64 μg/ml
CCCOCCOC(=O)C[n+]1ccn(C)c1.N#C[N-]C#N [KG77, 3-methyl-1-(2-[2-propoxy]ethoxycarbonylmethyl)imidazolium N(CN)2]	non-toxic			>20000 KG77 μg/ml
